Test results from article PMC5823406, “Vehicle development, pharmacokinetics and toxicity of the anti-invasive agent 4-fluoro-3’,4’,5’-trimethoxychalcone in rodents” (PLoS ONE, 2018).
“And” between values parts separate entries of the source, which are not always exact repeats. Equal entries are not always repeated.

How the values were obtained:
MCF-7/6 [1] = test: Chick heart invasion assay (3D confrontation culture); type: cell-based; conditions: Homo sapiens, MCF7/6; read-out: projected C16 EC50 value
From the text: Our laboratories have been characterizing and validating 4-fluoro-3’,4’,5’-trimethoxychalcone or C16 as a novel invasion inhibitor for the study and potential treatment of metastatic cancer (Fig 1). C16 has nanomolar anti-invasive potency in the chick heart and Matrigel in vitro invasion models against several human cancer cell lines (MCF-7/6 breast cancer, BLM melanoma and SK-OV-3 ovarian carcinoma). […] Given its discovery in a phenotypic model, the biological target of C16 is unknown. We have differentiated the molecular mechanism of action of C16 from that of other antimetastatic agents, and are currently characterizing its biochemical interactions in detail.
Fig 1 Structure and biological activity of C16.

CYP 2D6 = CYP 2D6 (Homo sapiens, UniProt P10635); test: CYP inhibition 2D6 (MFC substrate); type: in vitro ADME; conditions: 10 μM
CYP 2D6, sequence (P10635 whole entry): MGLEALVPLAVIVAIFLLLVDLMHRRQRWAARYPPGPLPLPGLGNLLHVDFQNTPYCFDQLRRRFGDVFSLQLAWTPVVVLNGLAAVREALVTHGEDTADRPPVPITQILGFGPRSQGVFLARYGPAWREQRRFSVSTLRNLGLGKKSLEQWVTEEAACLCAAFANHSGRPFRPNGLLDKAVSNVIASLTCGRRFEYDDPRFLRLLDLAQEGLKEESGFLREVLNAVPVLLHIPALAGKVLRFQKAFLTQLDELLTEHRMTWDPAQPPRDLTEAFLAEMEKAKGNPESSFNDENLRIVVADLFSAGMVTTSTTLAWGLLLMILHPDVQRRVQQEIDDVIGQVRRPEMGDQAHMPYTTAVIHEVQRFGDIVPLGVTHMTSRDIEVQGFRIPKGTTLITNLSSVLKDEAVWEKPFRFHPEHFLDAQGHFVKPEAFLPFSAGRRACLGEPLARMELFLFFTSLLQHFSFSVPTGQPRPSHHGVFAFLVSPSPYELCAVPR
From the text: (§1) Table 3 In vitro physicochemical, stability and metabolism data. | column: Value

[2] = Whole blood C16 determination after 7-day dosing via medicated gels; type: in vivo, mouse; conditions: for Blood concentration of C16: Average±SD
Description: On the evening of day 6, blood was collected via the tail vein for the 0, 100 and 300 mg/kg C16 cohorts for determination of the whole blood C16 level. On the morning of day 7, mice of the 0, 100 and 300 mg/kg C16 cohorts were anesthetized by IP injection with 250 mg/kg of Avertin (20 mL/kg, preparation see Section E in S1 File). Blood for C16 determination and hematological and biochemical analysis was collected via cardiac exsanguination (600 μL to 1 mL). Detailed analysis protocols are described below. Afterward, animals were sacrificed by cervical dislocation.
Blood samples (25 μL) were collected via the tail vein or cardiac puncture (last time point). Blood was pipetted into a tube with 25 μL heparinized water (1 μL of sodium heparin (1000 units/mL) + 24 μL water) within 30 seconds of collection. The sample was pipetted up and down five times, immediately frozen on dry ice, and stored at -60°C to -80°C until analysis.
E.C. Whole blood C16 levels
Table AA. Individual blood concentration (ng/mL) for C16 in cohorts on medicated gel .
Cohort and animal Evening Morning
BLOQ: below the limit of quantitation (0.5 ng/mL). Samples that were below the limit of quantification were not used in the calculation of
Table BB. […]

[3] = Metabolite profiling in whole blood; type: in vitro ADME; conditions: rat whole blood
Description: C. Stability and metabolism
For details on ADME experiments not included underneath , please consult ref. [1].
C.A. Whole blood stability
Column: Kinetex XB-C18 column, 2.6 µm (150 x2.1 mm)
Mobile phase A: H2O + 0.1% v/v Formic Acid
Mobile phase B: MeCN + 0.1% v/v Formic Acid
Autosampler syringe volume: 100 µL
Weak wash: MeOH:H2O 1:9 v/v
Strong wash: MeOH:H2O 95:5 v/v
Table K. Gradient program.
Mass spectrometric conditions
Model: AB Sciex API5500 QTrap
Mode: Multiple ion monitoring (MIM)
Table L. MIM (parent to parent transitions).
The areas and percentages for the parent and metabolites have been calculated using MIM data where parent to parent transitions have been used, and assume that each metabolite has the same point of ionisation and the sensitivity of the metabolite has not been affected by the biotransformation.

Aqueous solubility = type: physicochemical; conditions: test concentration 200 μM
From the text: as §1

MCF-7/6 [4] = system: MCF-7/6; design: method as in PMID 26204510; conditions: cited from earlier work

COc1cc(C(=O)/C=C/c2ccc(F)cc2)cc(OC)c1OC [C16, 4-fluoro-3’,4’,5’-trimethoxychalcone]
EC50 (MCF-7/6 [1]): 10 nM and 0.00632 µg/mL | CYP inhibition 2D6 (MFC substrate) (CYP 2D6): -19 % inhibition of control | Blood concentration of C16 ([2]; 100 mg/kg cohort on medicated gel, Evening (day 6)): 8.48 ± 2.28 ng/mL | Individual blood concentration of C16 ([2]; 100 mg/kg cohort on medicated gel, Evening, animals 2-1 to 2-4): 8.39 ng/mL and 5.39 ng/mL and 9.33 ng/mL and 10.8 ng/mL | Blood concentration of C16 ([2]; 100 mg/kg cohort on medicated gel, Morning (day 7)): 31.2 ± 26.0 ng/mL | Individual blood concentration of C16 ([2]; 100 mg/kg cohort on medicated gel, Morning, animals 2-1 to 2-4): 11.5 ng/mL and 6.14 ng/mL and 56.2 ng/mL and 50.8 ng/mL | Blood concentration of C16 ([2]; 300 mg/kg cohort on medicated gel, Evening (day 6)): 7.63 ± 5.07 ng/mL | Individual blood concentration of C16 ([2]; 300 mg/kg cohort on medicated gel, Evening, animals 3-1, 3-3, 3-4): 3.51 ng/mL and 13.3 ng/mL and 6.09 ng/mL | Blood concentration of C16 ([2]; 300 mg/kg cohort on medicated gel, Morning (day 7)): 38.1 ± 27.8 ng/mL | Individual blood concentration of C16 ([2]; 300 mg/kg cohort on medicated gel, Morning, animals 3-1 to 3-4): 30.1 ng/mL and 21.6 ng/mL and 79.3 ng/mL and 21.3 ng/mL | Whole blood C16 concentrations versus projected EC50 ([2]; medicated gel, day 6 evening and day 7 morning): above its projected EC50 | Area in sample (%) ([3]; 0 min control): 62.4% | Area in sample (%) ([3]; 15 min sample): 52.2% | Aqueous solubility (Aqueous solubility; PBS, pH 7.4): 7.9 µM | Aqueous solubility (Aqueous solubility; simulated gastric fluid): 9.1 µM | Aqueous solubility (Aqueous solubility; simulated intestinal fluid): 2.4 µM | Activity level in 3D confrontation culture (chick heart invasion assay, MCF-7/6) (MCF-7/6 [4]): 10 nM
